In article PMC9923724, “Half sandwich-type osmium, ruthenium, iridium and rhodium complexes with bidentate glycosyl heterocyclic ligands induce cytostasis in platinum-resistant ovarian cancer cells and bacteriostasis in Gram-positive multiresistant bacteria” (Frontiers in Chemistry, 2023):

Experiments:
Type in all cases: cell-based
[1] = test system: methicillin-resistant Staphylococcus aureus (MRSA) clinical isolates; experiment: Broth microdilution MIC, clinical MRSA isolates; conditions: for MIC against clinical MRSA isolates (as a group): 6 clinical MRSA isolates; for MIC, MRSA 20 426: clinical isolate 20 426, blood, 2020; for MIC, MRSA 24 035: clinical isolate 24 035, wound; for MIC, MRSA 24 035 / MIC, MRSA 24 268 / MIC, MRSA 24 272 / MIC, MRSA 24 328 / MIC, MRSA 24 408: 2018; for MIC, MRSA 24 268: clinical isolate 24 268, throat; for MIC, MRSA 24 272: clinical isolate 24 272, throat; for MIC, MRSA 24 328: clinical isolate 24 328, throat; for MIC, MRSA 24 408: clinical isolate 24 408, bronchial
Experimental: The MIC values of the complexes were determined against the reference strains of S. aureus (ATCC29213) and E. faecalis. (ATCC29212) and against clinical VRE and MRSA isolates by microdilution assays (repeated at least twice in duplicates) as described in Materials and Methods. The numbers indicate how many isolates were susceptible to the compound out of those tested; i.e., 1/6 stands for 1 isolate was susceptible out of 6 tested. […] Cells were harvested and lysed. Cellular proteins was separated on a 10% SDS-PAGE gel and were blotted. Blots were probed with 4HNE antibody (top blot), the lower blot was stained with amido black. Arrows point at band of interest. Experiments were repeated three times and a representative blot is shown. On the blots brightness and contrast were adjusted. […] Each was matched to a substance and strain by its position over the x-axis categories. / Ir-7: ND and 0/3 (left plot) and ND and 0/6 (right plot) were matched to E. faecalis/VRE and S. aureus/MRSA by position only.
We used a set of clinical isloates of S. aureus and E. faecium that were collected at the Medical Center of the University of Debrecen (Hungary) between 01. 01. 2018.—31. 12. 2020. The clinical isolates were identified using a Microflex MALDI-TOF mass spectrometer (Bruker, Billerica, MA, United States). Antibiotic susceptibility of the isolates was tested following the European Committee on Antimicrobial Susceptibility Testing ([EUCAST, 2021]) guidelines valid at the time of collection.
Microdilution experiments were performed according to the standards of EUCAST ([EUCAST, 2021]). […] The inoculated plates were incubated for 24 h at 37°C then were assessed visually. […] All experiments were performed at least twice in duplicates.

[2] = test system: primary dermal fibroblasts; experiment: MTT reduction assay (4 h) on primary fibroblasts; conditions: primary human dermal fibroblasts
Experimental: 3 × 10^3 A2780 cells, 2 × 10^3 ID8 cells and 4 × 10^3 primary fibroblasts were plated to 96 well plates. Cells were treated with the compounds in the concentrations indicated for either 4 h for an MTT assay or for 48 h for an SRB assay. Data is represented as average ± SD, from three biological replicates; individual assays were performed in duplicates. Values were normalized for vehicle treated cells, absorbance for vehicle treated cells equals to 1. Statistical significance was assessed using two-way ANOVA test comparing the free ligand and each complex as a complex-ligand pair. Before the test normality was assessed using the D’Agostino-Pearson test. The ID8 SRB Ir-7+L-7 dataset had lognormal distribution. […] All other datasets had normal distribution. For better visibility the p values are presented in an excel sheet at https://figshare.com/s/2c942a812caea8869a67. Non-linear regression was performed on the A2780 SRB and the ID8 SRB datasets.
Human primary dermal fibroblasts were cultured in low glucose DMEM (1 g/L glucose) medium supplemented with 20% fetal calf serum, 2 mM glutamine, 1% penicillin-streptomycin.
MTT reduction assay measures the activity of mitochondrial complex I and can be used to detect toxicity ([Virág et al., 1998]; [Henslee et al., 2016]). The assay was performed similar to ([Bakondi et al., 2003]). Briefly, cells were plated in 96 well plates the day before the assay. Cells were treated with the compounds for 4 h, then MTT was added in 0.5 mg/ml final concentration and cells were incubated at 37°C in a cell incubator. Culture media was removed and the reduced MTT dye was dissolved in dimethyl-sulfoxide (DMSO) and plates were measured in a plate photometer (Thermo Scientific Multiscan GO spectrophotometer, Waltham, MA, United States) at 540 nm. On each plate wells were designed to contain untreated/vehicle-treated cells. In calculations the readings for these wells was considered as 1 and all readings were expressed relative to these values.

[3] = test system: Capan2 pancreatic adenocarcinoma cells; experiment: SRB assay (48 h) on Capan2 cells
Experimental: 3 × 10^3 Capan2 cells, 2 × 10^3 Saos cells and 8 × 10^3 L428 were plated to 96 well plates. Cells were treated with the compounds in the concentrations for 48 h. Then for Capan2 and Saos SRB assay was performed, L428 cells were counted using a Burker chamber. Data is represented as average ± SD, from three biological replicates; individual assays were performed in duplicates. Values were normalized for vehicle treated cells, absorbance for vehicle treated cells equals to 1. Normality was checked using the Shapiro-Wilk test. The Saos Os-7 dataset was normalized using the Box-Cox method, other datasets had normal distribution. Each complex was individually assessed for statistical significance using One-way ANOVA test followed by Dunnett’s post hoc test; all values were compared to the values of the lowest concentration. For better visibility the p values are presented in an excel sheet at https://figshare.com/s/2c942a812caea8869a67. Non-linear regression was performed on the Capan2 and Saos datasets.
Capan2 cells were maintained in MEM, 10% fetal bovine serum, 1% Penicillin/Streptomycin, 2 mM Glutamine.
The assay was performed similar to ([Kovács et al., 2019]). Cells were seeded in 96 well plates the day before the assay. Cells were treated with the compounds for 48 h. Cells were fixed with 10% trichloroacetic acid (TCA). Fixed cells were washed in distilled water 3 times followed by staining with SRB (0.4 m/V% dissolved in 1% acetic acid) for 10 min. Stained cells were washed in 1% acetic acid 5 times; acetic acid was removed and cells were left to dry. Protein-bound SRB was released by adding 100 µl 10 mM Tris base. Plates were measured in a plate photometer (Thermo Scientific Multiscan GO spectrophotometer, Waltham, MA, United States) at 540 nm. On each plate wells were designed to contain vehicle-treated cells. In calculations the readings for these wells was considered as 1 and all readings were expressed relative to these values.
Statistical analysis was performed using 8.0.1 version of Graphpad Prism. Values were tested for normal distribution using the D’Agostino and Pearson normality test. When necessary, values were log normalized or were normalized using the Box-Cox normalization method ([Box and Cox, 1964]) as indicated in the figure captions. Non-linear regression was performed using the built-in “[Inhibitor] vs. response—Variable slope (four parameters), least square fit” utility of Graphpad that yielded IC50 and Hill slope values.

For Cc1ccc(C(C)C)cc1.F[P-](F)(F)(F)(F)F.O=C(OCC1OC(n2cc(-c3ccc4ccccc4n3)nn2)C(OC(=O)c2ccccc2)C(OC(=O)c2ccccc2)C1OC(=O)c1ccccc1)c1ccccc1.[Cl][Ru+] (mixture of isomers) [Ru-7], the “MIC against clinical MRSA isolates (as a group)” value (from here on “MIC … (as a group)”) [1] was 5 to 40 µM, the “MIC, MRSA 20 426” value [1] was 10 µM and the “MIC, MRSA 24 035” value [1] was 40 µM. The “MIC, MRSA 24 268” value [1] was 20 µM, the “MIC, MRSA 24 272” value [1] was 5 µM and the “MIC, MRSA 24 328” value [1] was 10 µM. For the same compound, the “MIC, MRSA 24 408” value [1] was 10 µM, the “Fibroblast MTT Max. (maximal inhibition)” value [2] was 23.93% and the “Capan2 SRB Max. (maximal inhibition)” value [3] was 39.80%. The IC50 [3] was 1.39 µM.
Cc1c(C)c(C)[c-](C)c1C.F[P-](F)(F)(F)(F)F.O=C(OCC1OC(n2cc(-c3ccc4ccccc4n3)nn2)C(OC(=O)c2ccccc2)C(OC(=O)c2ccccc2)C1OC(=O)c1ccccc1)c1ccccc1.[Cl][Ir+2] (mixture of isomers) [Ir-7] was tested, and the “MIC … (as a group)” value [1] was “no activity”, the “MIC, MRSA 20 426” value [1] was 40< µM and the “MIC, MRSA 24 035” value [1] was 40< µM. The “MIC, MRSA 24 268” value [1] was 40< µM, the “MIC, MRSA 24 272” value [1] was 40< µM and the “MIC, MRSA 24 328” value [1] was 40< µM. For the same compound, the “MIC, MRSA 24 408” value [1] was 40< µM, the “Fibroblast MTT Max. (maximal inhibition)” value [2] was 12.81% and the “Capan2 SRB Max. (maximal inhibition)” value [3] was 48.83%. For the same compound, the IC50 [3] was 1.93 µM.
Cc1ccc(C(C)C)cc1.F[P-](F)(F)(F)(F)F.O=C(OCC1OC(n2cc(-c3ccc4ccccc4n3)nn2)C(OC(=O)c2ccccc2)C(OC(=O)c2ccccc2)C1OC(=O)c1ccccc1)c1ccccc1.[Cl][Os+] (mixture of isomers) [Os-7] was tested, and the “MIC … (as a group)” value [1] was 5 µM, the “MRSA isolates susceptible out of those tested” value ([1]; 6 isolates tested, susceptible = MIC up to 40 µM) was 1 out of the 6 and the “MIC, MRSA 20 426” value [1] was 40< µM. For the same compound, the “MIC, MRSA 24 035” value [1] was 40< µM, the “MIC, MRSA 24 268” value [1] was 40< µM and the “MIC, MRSA 24 272” value [1] was 5 µM. For the same compound, the “MIC, MRSA 24 328” value [1] was 40< µM, the “MIC, MRSA 24 408” value [1] was 40< µM and the “Fibroblast MTT Max. (maximal inhibition)” value [2] was 30.97%. The “Capan2 SRB Max. (maximal inhibition)” value [3] was 59.11% and the IC50 [3] was 1.35 µM.
